{"source": "patent US11013740B2", "about": "“Histone deacetylase 6 selective inhibitors for the treatment of cisplatin-induced peripheral neuropathy” (REGENACY PHARMACEUTICALS, LLC, priority 2015, dated 2021)", "key": {"[1]": {"system": "cisplatin-induced mechanical hyperalgesia", "assay": "Von Frey test for mechanical hyperalgesia in cisplatin-treated mice", "format": "in vivo", "conditions": "for effect on existing cisplatin-induced mechanical hyperalgesia: 7 daily doses starting 3 days after last cisplatin dose", "description": "Adult male C57/Bl6J mice received cisplatin intraperitoneally (i.p.) (2.3 mg/kg) daily for five days, followed by five days rest and a second round of five days of cisplatin treatment. Three days after the last dose of cisplatin, mice received the HDAC6 inhibitor, compound 001, a compound of Formula (I), i.p. for seven to fourteen days at 3 mg/kg or 10 mg/kg.\nTo quantify signs of cisplatin-induced pain, the von Frey test was used (see below) which measures the decrease in threshold to induce a withdrawal response to a mechanical stimulus (hyperalgesia, one of the characteristics of CIPN). To assess cisplatin-induced numbness, the adhesive removal test (ART) was used. The time it took for the mouse to have a behavioral response to the patch (i.e. shaking or attempted removal) was recorded as a measure of sensory deficit or numbness. To determine if behavioral changes were due to altered general activity or motor function, the locomotor activity (LMA) test and the rotarod test was used. For LMA mice were placed in an open-field testing cage and movement was measured for 5 minutes. For the rotarod, mice were trained for two days and then tested on the rotarod (with increasing speeds) for 5 minutes. Time on the rotarod was recorded.\nAllodynic response to tactile stimulation is assessed using the Von Frey apparatus (Touch Test®).\nThe animal is placed in an enclosure and positioned on a metal mesh surface, but allowed to move freely. The animals' cabins are covered with red cellophane to diminish environmental disturbances. The test begins after a cessation of exploratory behavior. The set of Von Frey monofilaments provide an approximate logarithmic scale of actual force and a linear scale of perceived intensity.\nThe operating principle: when the tip of a fiber of given length and diameter is pressed against the skin at right angles, the force of application increases as long as the researcher continues to advance the probe until the fiber bends. After the fiber bends, the probe continues to advance, causing the fiber to bend more, but without additional force being applied.\nThe Touch Test™ Sensory Evaluator can be used on the plantar surfaces of the rat's foot. The animal indicates sensation by pulling back its paw. The minimal force needed to elevate the withdrawal reflex is considered/designated as the value of reference. In order to achieve paw withdrawal, the pressure applied is sometimes greater than 60 g, often requiring the researcher to apply enough pressure with the Von Frey filament to actually lift the paw of the naive animal. Decreases in force needed to induce withdrawal are indicative of hyperalgesia, as the force applied is a non-painful stimulus under normal conditions.\nCisplatin (TEVA Pharmaceuticals, North Wales, Pa.) was diluted in sterile saline and administered intraperitoneally (i.p.) at a dose of 2.3 mg/kg daily for 5 days, followed by 5 days of rest, and a second round of 5 doses for a total cumulative dose of 23 mg/kg cisplatin. It was shown that this dosing schedule induces mechanical hyperalgesia in mice (Qi-Liang Mao-Ying A K, et al. The anti-diabetic drug metformin protects against chemotherapy-induced peripheral neuropathy in a mouse model. Clinical Cancer Research. 2014; Krukowski K, et al. Prevention of chemotherapy-induced peripheral neuropathy by the small-molecule inhibitor pifithrin-mu. Pain. 2015; 156(11):2184-92). HDAC6 inhibitor, compound 001, (Acetylon Pharmaceuticals, Boston, Mass.) was dissolved in 20% 2-hydroxypropyl-β-cyclodextrin+0.5% hydroxypropyl methylcellulose (Sigma-Aldrich, St. Louis, Mo.) in water and administered i.p. at a dose of 10 mg/kg or 3 mg/kg. […]"}, "[2]": {"system": "mitochondrial respiration in tibial nerves", "assay": "Mitochondrial bioenergetics analysis of tibial nerves (XF24)", "format": "in vivo, mice", "description": "Tibial nerves were collected on experimental day 30, when the mice have received 2 rounds of cisplatin treatment and 11 injections of compound 001. Tissues were placed into islet capture XF24 microplate (Seahorse Bioscience, North Billerica, Mass.) in XF media with the addition of 5.5 mM glucose, 0.5 mM sodium pyruvate and 1 mM glutamine. Oligomycin (12 μM), FCCP (Carbonyl cyanide 4-(trifluoromethoxy)phenylhydrazone, 20 μM), and Rotenone/Antimycin A (20 μM each) (Sigma-Aldrich, St. Louis, Mo.) were injected sequentially during the assay. An assay cycle with a combination of 3-min mix, 3-min wait, and 4-min measure was repeated 4 times for baseline rates and after each port injection. After the respiratory measures, tissues were harvested and the oxygen consumption rate (OCR) values were normalized to the total protein content of each well. Basal respiration, ATP-linked respiration, proton leak, and maximal respiratory capacity were determined as described previously (Brand M D, and Nicholls D G. Assessing mitochondrial dysfunction in cells. The Biochemical journal. 2011; 435(2):297-312; Ma J, et al. Heat shock protein 70 is necessary to improve mitochondrial bioenergetics and reverse diabetic sensory neuropathy following KU-32 therapy. The Journal of pharmacology and experimental therapeutics. 2014; 348(2):281-92). Briefly, the initial measurements provide a measure of the basal OCR in the absence of respiratory chain poisons. The amount of basal OCR that is coupled to ATP production was determined by addition of the ATP synthase inhibitor oligomycin, which decreased the basal OCR. […] Next, maximal respiratory capacity (MRC) was assessed by addition of the protonophore FCCP, which dissipates the mitochondrial membrane potential and promotes maximal OCR. Lastly, non-mitochondrial respiration was determined by the addition of rotenone and antimycin A, which inhibit the activities of mitochondrial respiratory chain complex I and complex III respectively."}, "[3]": {"conditions": "2 rounds of cisplatin and 11 injections of compound"}}, "data": [{"smiles": "O=C(NO)c1cnc(NC2(c3ccccc3)CCC(F)(F)CC2)nc1", "note": "[compound 001]", "values": [{"measurement": "effect on existing cisplatin-induced mechanical hyperalgesia", "setting": "[1]; 3 mg/kg i.p.", "result": "did not"}, {"measurement": "effect of prolonged treatment on mechanical hyperalgesia", "setting": "[1]; 10 mg/kg for two consecutive weeks starting 3 days after last cisplatin dose", "result": "complete and sustained recovery from mechanical hyperalgesia"}, {"measurement": "duration of beneficial effect of prolonged regimen", "setting": "[1]; 10 mg/kg for two consecutive weeks, followed to experiment termination", "result": "maintained until at least one month after the last dose"}, {"measurement": "effect on existing cisplatin-induced mechanical hyperalgesia", "setting": "[1]; 10 mg/kg i.p.", "result": "effectively relieved cisplatin-induced mechanical hyperalgesia"}, {"measurement": "time after first dose at which effect on mechanical allodynia was first detected", "setting": "[1]; 10 mg/kg i.p., cisplatin-treated mice", "result": 24, "unit": "h"}, {"measurement": "mechanical sensitivity, compound alone", "setting": "[1]; 10 mg/kg, without cisplatin", "result": "did not alter mechanical sensitivity"}, {"measurement": "time after last dose until which beneficial effect on mechanical hyperalgesia was maintained", "setting": "[1]; 7 daily doses of 10 mg/kg", "result": 4, "unit": "days"}, {"measurement": "prevention of development of mechanical hyperalgesia", "setting": "[1]; administered i.p. one hour prior to each dose of cisplatin", "result": "prevented the development of mechanical hyperalgesia"}, {"measurement": "effect of second round of treatment on mechanical hyperalgesia", "setting": "[1]; second round of 7 daily injections, 10 mg/kg, after 7 days rest", "result": "transiently reversed cisplatin-induced mechanical hyperalgesia"}, {"measurement": "mitochondrial respiration (basal, ATP-linked, proton leak, maximal) in tibial nerves", "setting": "[2]; [3]", "result": "normalized all aspects of the cisplatin-induced decrease in mitochondrial respiration"}, {"measurement": "non-mitochondrial respiration in tibial nerves", "setting": "[2]; [3]", "result": "not altered"}, {"measurement": "mitochondrial bioenergetics, compound alone", "setting": "[2]; without cisplatin", "result": "did not have any effect on mitochondrial bioenergetics"}]}]}
